Entries after “also recorded” stand apart in the source; their conditions may differ. Where no end group is shown, it is not given here.
Columns and labels:
[1] = test system: intraepidermal nerve fibers; test: Intraepidermal nerve fiber density (IENFD) in normal skin adjacent to wounds; assay type: in vivo, mice
Procedure: In a blinded mode, the IENFD in normal skin areas adjacent to wounds in non-DM and DM not-treated and treated with topical SP application for a 10-day period as described above (FIGS. 13 and 14) was evaluated. […] Similar results were found in preliminary studies that evaluated the effect of MC stabilization with DSCG. More specifically, DSCG treatment in two DM mice tended to have a beneficial effect in IENFD (151±55 fibers/mm) compared to four non-treated DM mice (55±17, p<0.05). Initial observations in TAC1KO mice also indicated reduced IENFD (28±12, n=2 mice) that improved in a similar way as with the previous experiments following SP treatment (41±16, n=2).

M1 and M2 macrophages = test: M1/M2 macrophage ratio in skin after 10-day intraperitoneal DSCG; assay type: in vivo, mice; conditions: measured ten days after treatment completion
Procedure: The number of HLA-DR^+/CD68^+ (M1−) and CD206/CD68^+ (M2−) macrophages in the skin of DM patients and non-DM subjects were evaluated by immunofluorescence following previously defined methods. See e.g., J Peripher Nery Syst 2008; 13:218-27, Handbook of clinical neurology 2013; 115:115-36, Immunol Rev 2007; 217:65-78, Proc Natl Acad Sci USA 2006; 103:7759-64, and Nature 1982; 297:229-31. […] The gene expression of M1-associated pro-inflammatory cytokines, such as TNF-α (FIG. 4, panel a) and IL-1β (FIG. 4, panel b), was also elevated in the foot skin of diabetes mellitus patients, whereas the M2-associated anti-inflammatory cytokine IL-10 was reduced (FIG. 4, panel c).
Using the same methods as in the human samples described above, an increased M1/M2 ratio in C57BL/6J STZ-DM mice was observed. […] Both non-DM and STZ-DM KO mice and their normal littermates were tested.
The effect of a 10-day disodium cromoglycate (DSCG) intraperitoneal administration was evaluated in non-DM and STZ-DM C57B16 mice that were also tested for their wound healing capacity.

mast cells (MC) = test: Toluidine blue count of degranulated mast cells in dorsal skin biopsies of STZ-DM mice; assay type: in vivo; conditions: STZ-DM C57Bl6 mice, 8-weeks DM, ten days intraperitoneal treatment
Procedure: The number of intact or non-degranulated and degranulated MC in dorsal skin biopsies from non-DM and STZ-DM C57B16 mice with 8-weeks DM were evaluated by toluidine blue staining. Sections were stained metachromatically with 0.1% toluidine blue, pH 2 (cytoplasmic granules appear purple on a blue background). […] See e.g., J Peripher Nery Syst 2008; 13:218-27, Handbook of clinical neurology 2013; 115:115-36, Immunol Rev 2007; 217:65-78, Proc Natl Acad Sci USA 2006; 103:7759-64, and Nature 1982; 297:229-31. Non-DM and STZ-DM mice were also treated for ten days intraperitoneally with the MC stabilizer disodium cromoglycate (DSCG). […] However, the number of extensively degranulated MC was increased whereas the number of non-degranulated cells was reduced in STZ-DM mice compared to the non-DM controls.

6 mm excisional wounds = test: Daily topical SP in 6 mm excisional wounds: IL-6 expression and M1/M2 ratio; assay type: in vivo, mice
Text: Daily topical Substance P (SP) application in 6 mm excisional wounds created at the back of non-DM and STZ-DM mice increased the IL-6 expression and M1/M2 ratio three days after wounding, imitating the acute inflammatory phase of wound healing in acute wounds (FIG. 12). However, at Day-10, SP reduced both these inflammatory factors in STZ-DM mice, which was increased when compared to non-DM mice.

wounds = test: Topical wound SP treatment in MC deficient mice (wound healing); assay type: in vivo; conditions: compared with WT mice
Text: Combined topical treatment with SP and an MC stabilization agent should have an additive, if not synergistic, effect in preventing and reversing SFN.

[2] = STZ-DM mice, Day-10, listed as SP
[3] = non-DM and STZ-DM mice, three days after wounding
[4] = non-DM and STZ-DM mice, three days after wounding, listed as SP

Row | Molecule | IENFD ([1]; DM mice treated with DSCG (two mice), preliminary study, non-treated DM 55±17) | M1/M2 macrophage ratio (M1 and M2 macrophages; STZ-DM C57Bl6 mice) | M1/M2 macrophage ratio (M1 and M2 macrophages; non-DM C57Bl6 mice) | number of degranulated MC in skin (mast cells (MC)) | IENFD ([1]; DM mice, topical application for 10 days, periwound normal skin, listed as SP) | IENFD ([1]; TAC1KO mice after SP treatment (n=2), initial observations, untreated 28±12) | IENFD ([1]; non-DM mice, topical application for 10 days, periwound normal skin, listed as SP) | IL-6 expression in wounds (6 mm excisional wounds; [2]) | M1/M2 ratio in wounds (6 mm excisional wounds; [2]) | IL-6 expression in wounds (6 mm excisional wounds; [3]) | M1/M2 ratio in wounds (6 mm excisional wounds; [3]) | IL-6 expression in wounds (6 mm excisional wounds; [4]) | M1/M2 ratio in wounds (6 mm excisional wounds; [4]) | effect on wound healing (wounds)
1 | O=C([O-])c1cc(=O)c2c(OCC(O)COc3cccc4oc(C(=O)[O-])cc(=O)c34)cccc2o1.[Na+].[Na+] [DSCG, disodium cromoglycate] | 151±55 fibers/mm | drastically reduces it in STZ-DM to normal levels; also recorded: reduced the ratio to levels similar to the non-DM mice; also recorded: reduces the M1/M2 ratio to normal levels | no effect | effectively reduce the number of degranulated cells | – | – | – | – | – | – | – | – | – | –
2 | Substance P (RPKPQQFFGLM-NH2; ends and bridges not checked; UniProt P20366 58-68, looked up) [neuropeptide Substance P (SP), acts through the NK1 receptor] | – | – | – | – | returned to normal levels; also recorded: increased IENFD to levels similar to the non-DM mice | 41±16 fibers/mm | did not affect IENFD; also recorded: no obvious effect | reduced the chronic inflammation | reduced the chronic inflammation | increased | increased | induced an acute inflammatory response | induced an acute inflammatory response | lacks the beneficial effects
